According to patent publication US5876761A, “Sustained release formulations of water soluble peptides” (Novartis AG, priority 1990, dated 1999):
“Also recorded” adds a separate entry of the source.

Assay: Stability of octreotide pamoate in sustained release formulations
Format: physicochemical
Conditions: in sustained release formulations (microparticles); hydrate

For `C[C@@H](O)[C@@H]1NC(=O)[C@H](CCCCN)NC(=O)[C@@H](Cc2c[nH]c3ccccc23)NC(=O)[C@H](Cc2ccccc2)NC(=O)[C@@H](NC(=O)[C@H](N)Cc2ccccc2)CSSC[C@@H](C(=O)N[C@H](CO)[C@@H](C)O)NC1=O` [pamoate, octreotide pamoate hydrate], the stability was “excellent stability; also recorded: very stable”.
